This passage reports Activity results from ChEMBL document CHEMBL1944514, “Fluorescence detection of single nucleotide polymorphisms using nucleic acid probe containing tricyclic base-linked acyclonucleoside” (Bioorg Med Chem Lett, 2012).

Common to all, as to type: nucleic-acid assay
The test system of experiment [1] is Nucleic Acid. As to the kind of experiment: Binding affinity to 3'-r(CUUCCAGUUACAUAGAGA)-5' RNA assessed as fluorescence quenching by spectrophotometry.
Experiment [2] deals with Nucleic Acid. In words: Binding affinity to 3'-r(CUUCCAGUUCCAUAGAGA)-5' RNA assessed as fluorescence quenching by spectrophotometry.
Experiment [3] has as its system Nucleic Acid. As to the kind of experiment: Binding affinity to 3'-r(CUUCCAGUUGCAUAGAGA)-5' RNA assessed as fluorescence quenching by spectrophotometry.
In experiment [4] the test system is Nucleic Acid. As to the kind of experiment: Binding affinity to 3'-r(CUUCCAGUUUCAUAGAGA)-5' RNA assessed as fluorescence quenching by spectrophotometry.

Calls of active or inactive are those of the source. The calls are words filed in the database; no cut-off is given here.

Turning to `Cc1cn([C@H]2C[C@H](OP(=O)(O)OC[C@H]3O[C@@H](n4ccc(N)nc4=O)C[C@@H]3OP(=O)(O)OC[C@H]3O[C@@H](n4cnc5c(N)ncnc54)C[C@@H]3OP(=O)(O)OC[C@H]3O[C@@H](n4cnc5c(N)ncnc54)C[C@@H]3OP(=O)(O)OC[C@H](Cn3cnc4cc5c(N)ncnc5nc43)OP(=O)(O)OC[C@H]3O[C@@H](n4ccc(N)nc4=O)C[C@@H]3OP(=O)(O)OC[C@H]3O[C@@H](n4cnc5c(=O)[nH]c(N)nc54)C[C@@H]3OP(=O)(O)CC[C@H]3O[C@@H](n4cc(C)c(=O)[nH]c4=O)C[C@@H]3OP(=O)(O)OC[C@H]3O[C@@H](n4cnc5c(N)ncnc54)C[C@@H]3OP(=O)(O)OC[C@H]3O[C@@H](n4cc(C)c(=O)[nH]c4=O)C[C@@H]3OP(=O)(O)OC[C@H]3O[C@@H](n4ccc(N)nc4=O)C[C@@H]3OP(=O)(O)OC[C@H]3O[C@@H](n4cc(C)c(=O)[nH]c4=O)C[C@@H]3OP(=O)(O)OC[C@H]3O[C@@H](n4ccc(N)nc4=O)C[C@@H]3OP(=O)(O)OC[C@H]3O[C@@H](n4cc(C)c(=O)[nH]c4=O)C[C@@H]3O)[C@@H](COP(=O)(O)O[C@H]3C[C@H](n4cnc5c(=O)[nH]c(N)nc54)O[C@@H]3COP(=O)(O)O[C@H]3C[C@H](n4cnc5c(=O)[nH]c(N)nc54)O[C@@H]3COP(=O)(O)O[C@H]3C[C@H](n4cnc5c(N)ncnc54)O[C@@H]3COP(=O)(O)O[C@H]3C[C@H](n4cnc5c(N)ncnc54)O[C@@H]3COP(=O)(O)O[C@H]3C[C@H](n4cnc5c(=O)[nH]c(N)nc54)O[C@@H]3CO)O2)c(=O)nc1N`, the result in the experiment with Nucleic Acid [1], in the experiment with Nucleic Acid [2] and in the experiment with Nucleic Acid [4] was Active. Moreover, the outcome in the experiment on Nucleic Acid [3] was inactive.

As to `Cc1cn([C@H]2C[C@H](OP(=O)(O)OC[C@H]3O[C@@H](n4ccc(N)nc4=O)C[C@@H]3OP(=O)(O)OC[C@H]3O[C@@H](n4cnc5c(N)ncnc54)C[C@@H]3OP(=O)(O)OC[C@H]3O[C@@H](n4cnc5c(N)ncnc54)C[C@@H]3OP(=O)(O)OC[C@H](Cn3cnc4cc5c(N)ncnc5nc43)OP(=O)(O)OC[C@H]3O[C@@H](n4cnc5c(=O)[nH]c(N)nc54)C[C@@H]3OP(=O)(O)OC[C@H]3O[C@@H](n4cnc5c(=O)[nH]c(N)nc54)C[C@@H]3OP(=O)(O)CC[C@H]3O[C@@H](n4cc(C)c(=O)[nH]c4=O)C[C@@H]3OP(=O)(O)OC[C@H]3O[C@@H](n4cnc5c(N)ncnc54)C[C@@H]3OP(=O)(O)OC[C@H]3O[C@@H](n4cc(C)c(=O)[nH]c4=O)C[C@@H]3OP(=O)(O)OC[C@H]3O[C@@H](n4ccc(N)nc4=O)C[C@@H]3OP(=O)(O)OC[C@H]3O[C@@H](n4cc(C)c(=O)[nH]c4=O)C[C@@H]3OP(=O)(O)OC[C@H]3O[C@@H](n4ccc(N)nc4=O)C[C@@H]3OP(=O)(O)OC[C@H]3O[C@@H](n4cc(C)c(=O)[nH]c4=O)C[C@@H]3O)[C@@H](COP(=O)(O)O[C@H]3C[C@H](n4cnc5c(=O)[nH]c(N)nc54)O[C@@H]3COP(=O)(O)O[C@H]3C[C@H](n4cnc5c(=O)[nH]c(N)nc54)O[C@@H]3COP(=O)(O)O[C@H]3C[C@H](n4cnc5c(N)ncnc54)O[C@@H]3COP(=O)(O)O[C@H]3C[C@H](n4cnc5c(N)ncnc54)O[C@@H]3COP(=O)(O)O[C@H]3C[C@H](n4cnc5c(=O)[nH]c(N)nc54)O[C@@H]3CO)O2)c(=O)nc1N`, the outcome in the experiment with Nucleic Acid [1], with Nucleic Acid [3] and with Nucleic Acid [4] was Active. For the same compound, the result with Nucleic Acid [2] was inactive.

Take `Cc1cn([C@H]2C[C@H](OP(=O)(O)OC[C@H]3O[C@@H](n4ccc(N)nc4=O)C[C@@H]3OP(=O)(O)OC[C@H]3O[C@@H](n4cnc5c(N)ncnc54)C[C@@H]3OP(=O)(O)OC[C@H]3O[C@@H](n4cnc5c(N)ncnc54)C[C@@H]3OP(=O)(O)OC[C@H](Cn3cnc4cc5c(N)ncnc5nc43)OP(=O)(O)OC[C@H]3O[C@@H](n4cc(C)c(=O)[nH]c4=O)C[C@@H]3OP(=O)(O)OC[C@H]3O[C@@H](n4cnc5c(=O)[nH]c(N)nc54)C[C@@H]3OP(=O)(O)CC[C@H]3O[C@@H](n4cc(C)c(=O)[nH]c4=O)C[C@@H]3OP(=O)(O)OC[C@H]3O[C@@H](n4cnc5c(N)ncnc54)C[C@@H]3OP(=O)(O)OC[C@H]3O[C@@H](n4cc(C)c(=O)[nH]c4=O)C[C@@H]3OP(=O)(O)OC[C@H]3O[C@@H](n4ccc(N)nc4=O)C[C@@H]3OP(=O)(O)OC[C@H]3O[C@@H](n4cc(C)c(=O)[nH]c4=O)C[C@@H]3OP(=O)(O)OC[C@H]3O[C@@H](n4ccc(N)nc4=O)C[C@@H]3OP(=O)(O)OC[C@H]3O[C@@H](n4cc(C)c(=O)[nH]c4=O)C[C@@H]3O)[C@@H](COP(=O)(O)O[C@H]3C[C@H](n4cnc5c(=O)[nH]c(N)nc54)O[C@@H]3COP(=O)(O)O[C@H]3C[C@H](n4cnc5c(=O)[nH]c(N)nc54)O[C@@H]3COP(=O)(O)O[C@H]3C[C@H](n4cnc5c(N)ncnc54)O[C@@H]3COP(=O)(O)O[C@H]3C[C@H](n4cnc5c(N)ncnc54)O[C@@H]3COP(=O)(O)O[C@H]3C[C@H](n4cnc5c(=O)[nH]c(N)nc54)O[C@@H]3CO)O2)c(=O)nc1N`: the result in the experiment on Nucleic Acid [1] and in the experiment on Nucleic Acid [3] was inactive. Moreover, the result in the experiment on Nucleic Acid [2] and in the experiment with Nucleic Acid [4] was Active.

On to `Cc1cn([C@H]2C[C@H](OP(=O)(O)OC[C@H]3O[C@@H](n4ccc(N)nc4=O)C[C@@H]3OP(=O)(O)OC[C@H]3O[C@@H](n4cnc5c(N)ncnc54)C[C@@H]3OP(=O)(O)OC[C@H]3O[C@@H](n4cnc5c(N)ncnc54)C[C@@H]3OP(=O)(O)OC[C@H]3O[C@@H](n4cc(C)c(=O)[nH]c4=O)C[C@@H]3OP(=O)(O)OC[C@H](Cn3cnc4cc5c(N)ncnc5nc43)OP(=O)(O)OC[C@H]3O[C@@H](n4cnc5c(=O)[nH]c(N)nc54)C[C@@H]3OP(=O)(O)CC[C@H]3O[C@@H](n4cc(C)c(=O)[nH]c4=O)C[C@@H]3OP(=O)(O)OC[C@H]3O[C@@H](n4cnc5c(N)ncnc54)C[C@@H]3OP(=O)(O)OC[C@H]3O[C@@H](n4cc(C)c(=O)[nH]c4=O)C[C@@H]3OP(=O)(O)OC[C@H]3O[C@@H](n4ccc(N)nc4=O)C[C@@H]3OP(=O)(O)OC[C@H]3O[C@@H](n4cc(C)c(=O)[nH]c4=O)C[C@@H]3OP(=O)(O)OC[C@H]3O[C@@H](n4ccc(N)nc4=O)C[C@@H]3OP(=O)(O)OC[C@H]3O[C@@H](n4cc(C)c(=O)[nH]c4=O)C[C@@H]3O)[C@@H](COP(=O)(O)O[C@H]3C[C@H](n4cnc5c(=O)[nH]c(N)nc54)O[C@@H]3COP(=O)(O)O[C@H]3C[C@H](n4cnc5c(=O)[nH]c(N)nc54)O[C@@H]3COP(=O)(O)O[C@H]3C[C@H](n4cnc5c(N)ncnc54)O[C@@H]3COP(=O)(O)O[C@H]3C[C@H](n4cnc5c(N)ncnc54)O[C@@H]3COP(=O)(O)O[C@H]3C[C@H](n4cnc5c(=O)[nH]c(N)nc54)O[C@@H]3CO)O2)c(=O)nc1N`, for which, in the experiment with Nucleic Acid [1], the outcome was inactive. Moreover, the outcome in the experiment on Nucleic Acid [2], with Nucleic Acid [3] and in the experiment on Nucleic Acid [4] was Active.
